Assay results reported in ChEMBL document CHEMBL4765293, “Specific stabilization of promoter G-Quadruplex DNA by 2,6-disubstituted amidoanthracene-9,10-dione based dimeric distamycin analogues and their selective cancer cell cytotoxicity” (Eur J Med Chem, 2020).
Activity calls are given as the source filed them. No cut-off for these calls is given here.

How the values were obtained:
HeLa [1] = assay: Cytotoxicity against human HeLa cells assessed as cell viability incubated for 72 hr by MTT assay; assay type: functional, cell-based
[2] = Cytotoxicity against human HDFa cells assessed as cell viability incubated for 72 hr by MTT assay; assay type: cell-based
Quadruplex DNA [3] = assay: Binding affinity to c-KIT2 G4-quadruplex DNA (unknown orgin) assessed increase in melting temperature measured after 12 hrs by thermal denaturation based spectrophotometric analysis; assay type: nucleic-acid assay
[4] = Binding affinity to c-MYC ds DNA (unknown orgin) by UV- vis spectrophotometric analysis
Quadruplex DNA [5] = assay: Binding affinity to human c-KIT1 G4-quadruplex DNA (unknown origin) by UV- vis spectrophotometric analysis; assay type: nucleic-acid assay
Calf thymus DNA [6] = assay: Binding affinity to calf thymus duplex DNA by UV- vis spectrophotometric analysis; assay type: nucleic-acid assay; settings: Bos taurus
Quadruplex DNA [7] = assay: Binding affinity to human telomeric H21 G4 quadruplex DNA in presence of KCl assessed as increase in fluorescence intensity at 0.2 uM by fluorescence spectroscopic analysis; assay type: nucleic-acid assay
Calf thymus DNA [8] = assay: Binding affinity to calf thymus duplex DNA assessed as slight change in ellipticity of the CD signatures and topology by circular dichroism spectroscopy; assay type: nucleic-acid assay; settings: Bos taurus
Quadruplex DNA [9] = assay: Binding affinity to c-KIT2 G4 quadruplex (unknown origin) assessed as increase in fluorescence intensity at 0.2 uM by fluorescence spectroscopic analysis; assay type: nucleic-acid assay
Quadruplex DNA [10] = assay: Binding affinity to c-KIT2 G4-quadruplex DNA (unknown origin) by UV- vis spectrophotometric analysis; assay type: nucleic-acid assay
NIH3T3 = assay: Cytotoxicity against mouse NIH3T3 cells assessed as cell viability incubated for 72 hr by MTT assay; assay type: cell-based; settings: NIH3T3, 72 h
Quadruplex DNA [11] = assay: Binding affinity to c-MYC G4 quadruplex (unknown origin) assessed as increase in fluorescence intensity at 0.2 uM by fluorescence spectroscopic analysis; assay type: nucleic-acid assay
Quadruplex DNA [12] = assay: Binding affinity to c-MYC G4-quadruplex DNA (unknown origin) assessed as fluorescence life time by fluorescence spectroscopic analysis relative to compound alone group; assay type: nucleic-acid assay
Quadruplex DNA [13] = assay: Binding affinity to c-KIT1 G4-quadruplex DNA (unknown orgin) assessed increase in melting temperature measured after 12 hrs by thermal denaturation based spectrophotometric analysis; assay type: nucleic-acid assay
[14] = Selectivity index, binding affinity to c-MYC G4 quadruplex DNA (unknown origin) to binding affinity c-MYC ds DNA (unknown origin)
Quadruplex DNA [15] = assay: Binding affinity to c-KIT1 G4 quadruplex (unknown origin) assessed as increase in fluorescence intensity at 0.2 uM by fluorescence spectroscopic analysis; assay type: nucleic-acid assay
Quadruplex DNA [16] = assay: Binding affinity to human telomeric H21 G4 quadruplex DNA in presence of NaCl by UV- vis spectrophotometric analysis; assay type: nucleic-acid assay
Quadruplex DNA [17] = assay: Binding affinity to human telomeric H21 G4 quadruplex DNA in presence of NaCl assessed as increase in fluorescence intensity at 0.2 uM by fluorescence spectroscopic analysis; assay type: nucleic-acid assay
Quadruplex DNA [18] = assay: Binding affinity to human telomeric H21 G4-quadruplex DNA assessed as slight change in ellipticity of the CD signatures and topology in presence NaCl of by circular dichroism spectroscopy; assay type: nucleic-acid assay
Quadruplex DNA [19] = assay: Binding affinity to c-Myc G4-quadruplex DNA (unknown origin) by UV- vis spectrophotometric analysis; assay type: nucleic-acid assay
HEK-293T = assay: Cytotoxicity against human HEK293T cells assessed as cell viability incubated for 72 hr by MTT assay; assay type: functional, cell-based
HeLa [20] = assay: Induction of apoptotic cell death in human HeLa cells assessed as change in nuclear morphology at 3 to 5 uM after 12 hrs by acridine orange/ethidium bromide staining based fluorescence microscopy; assay type: functional; settings: dose 3-5 µM
Homo sapiens = species: Homo sapiens; assay: Binding affinity to c-MYC ds DNA (unknown origin) assessed as slight change in ellipticity of the CD signatures and topology by circular dichroism spectroscopy
Quadruplex DNA [21] = assay: Binding affinity to c-MYC G4 quadruplex DNA (unknown orgin) by cyclic voltammetry; assay type: nucleic-acid assay
Quadruplex DNA [22] = assay: Binding affinity to c-MYC G4-quadruplex DNA (unknown orgin) assessed increase in melting temperature measured after 12 hrs by thermal denaturation based spectrophotometric analysis; assay type: nucleic-acid assay
HeLa [23] = assay: Induction of apoptosis in human HeLa cells assessed as nuclear condensation and fragmentation at 5 uM measured after 24 hrs by DAPI staining based confocal laser scanning microscopy analysis; assay type: functional, cell-based
Quadruplex DNA [24] = assay: Binding affinity to Human telomeric H21 G4 quadruplex DNA (unknown origin) in presence of KCl by UV- vis spectrophotometric analysis; assay type: nucleic-acid assay
Quadruplex DNA [25] = assay: Binding affinity to c-MYC G4-quadruplex DNA (unknown orgin) at 100 uM by ethidium bromide displacement assay; assay type: nucleic-acid assay
Quadruplex DNA [26] = assay: Induction of stabilization of c-MYC G-quadruplex DNA template sequence (unknown orgin) assessed as inhibition of Taq polymerase mediated DNA polymerization at high concentration in presence K+ measured after 30 mins by Taq DNA polymerase stop assay; assay type: nucleic-acid assay
Quadruplex DNA [27] = assay: Binding affinity to human telomeric H21 G4-quadruplex DNA assessed as slight change in ellipticity of the CD signatures and topology in presence KCl of by circular dichroism spectroscopy; assay type: nucleic-acid assay
Quadruplex DNA [28] = assay: Binding affinity to c-MYC G4-quadruplex DNA (unknown orgin) assessed as slight change in ellipticity of the CD signatures and topology by circular dichroism spectroscopy; assay type: nucleic-acid assay
HeLa [29] = assay: Induction of apoptosis in human HeLa cells assessed as nuclear condensation and fragmentation at 7 uM measured after 24 hrs by DAPI staining based confocal laser scanning microscopy analysis; assay type: functional, cell-based
HeLa [30] = assay: Induction of apoptotic cell death in human HeLa cells assessed as change in nuclear morphology at 5 to 7 uM after 12 hrs by acridine orange/ethidium bromide staining based fluorescence microscopy; assay type: functional; settings: dose 5-7 µM
HeLa [31] = assay: Induction of apoptosis in human HeLa cells at 7 uM after 24 to 48 hrs by annexin V/PI- staining based flow cytometric analysis; assay type: functional, cell-based
HeLa [32] = assay: Induction of apoptosis in human HeLa cells at 100 uM after 24 to 48 hrs by annexin V/PI- staining based flow cytometric analysis; assay type: functional, cell-based; settings: time 24-48 hrs
HeLa [33] = assay: Induction of apoptotic cell death in human HeLa cells assessed as morphological changes from the spindle-shaped cells to round-shaped at 2 to 10 uM measured after 24 hrs by acridine orange/ethidium bromide staining based fluorescence microscopy; assay type: functional
HeLa [34] = assay: Induction of apoptotic cell death in human HeLa cells assessed as morphological changes from the spindle-shaped cells to round-shaped at 50 to 200 uM measured after 24 hrs by acridine orange/ethidium bromide staining based fluorescence microscopy; assay type: functional; settings: dose 50-200 µM
HeLa [35] = assay: Induction of apoptosis in human HeLa cells at 5 uM after 24 to 48 hrs by annexin V/PI- staining based flow cytometric analysis; assay type: functional, cell-based

SMILES	IC50 (HeLa [1])	IC50 [2]	ΔTm (Quadruplex DNA [3])	Ka [4]	Ka (Quadruplex DNA [5])	Ka (Calf thymus DNA [6])	Activity (Quadruplex DNA [7])	Activity (Quadruplex DNA [9])	Ka (Quadruplex DNA [10])	IC50 (NIH3T3)	Activity (Quadruplex DNA [11])	Time (Quadruplex DNA [12])	ΔTm (Quadruplex DNA [13])	Selectivity Index [14]	Activity (Quadruplex DNA [15])	Ka (Quadruplex DNA [16])	Activity (Quadruplex DNA [17])	Ka (Quadruplex DNA [19])	IC50 (HEK-293T)	Ka (Quadruplex DNA [24])	also measured
Cn1cc(NC(=O)c2cc(NC(=O)c3cccn3C)cn2C)cc1C(=O)NCCC[N+](C)(C)CC(=O)Nc1ccc2c(c1)C(=O)c1ccc(NC(=O)C[N+](C)(C)CCCNC(=O)c3cc(NC(=O)c4cc(NC(=O)c5cccn5C)cn4C)cn3C)cc1C2=O	5.3 µM	> 100 µM	6.8 °C	0.012 10^6/M	3.1 10^6/M	0.01 10^6/M	Active	Active	4.1 10^6/M	> 100 µM	Active	0.37 nanoseconds	9.9 °C	380	Active	0.6 10^6/M	Active	3.8 10^6/M	15 µM	1.1 10^6/M	Activity (Calf thymus DNA [8]): Active; Activity (Quadruplex DNA [18]): Active; Activity (HeLa [20]): Active; Activity (Homo sapiens): Active; Activity (Quadruplex DNA [21]): Active; ΔTm (Quadruplex DNA [22]): 11.1 °C; Activity (HeLa [23]): Active; Activity (Quadruplex DNA [25]): Active; Activity (Quadruplex DNA [26]): Active; Activity (Quadruplex DNA [27]): Active; Activity (Quadruplex DNA [28]): Active
C[N+](C)(C)CC(=O)Nc1ccc2c(c1)C(=O)c1ccc(NC(=O)C[N+](C)(C)C)cc1C2=O				0.05 10^6/M	0.11 10^6/M	0.06 10^6/M	Active	Active	0.09 10^6/M					3.2	Active	0.05 10^6/M	Active	0.16 10^6/M		0.07 10^6/M	
Cn1cc(NC(=O)c2cccn2C)cc1C(=O)NCCC[N+](C)(C)CC(=O)Nc1ccc2c(c1)C(=O)c1ccc(NC(=O)C[N+](C)(C)CCCNC(=O)c3cc(NC(=O)c4cccn4C)cn3C)cc1C2=O	7.4 µM	> 100 µM	5.1 °C	0.018 10^6/M	1.3 10^6/M	0.016 10^6/M	Active	Active	1.8 10^6/M	> 100 µM	Active	0.55 nanoseconds	7.9 °C	175	Active	0.6 10^6/M	Active	2.8 10^6/M	19 µM	0.3 10^6/M	Activity (HeLa [29]): Active; Activity (Calf thymus DNA [8]): Active; Activity (HeLa [30]): Active; Activity (Quadruplex DNA [18]): Active; Activity (Homo sapiens): Active; ΔTm (Quadruplex DNA [22]): 7.4 °C; Activity (Quadruplex DNA [25]): Active; Activity (Quadruplex DNA [26]): Active; Activity (Quadruplex DNA [27]): Active; Activity (Quadruplex DNA [28]): Active
Cn1cccc1C(=O)NCCC[N+](C)(C)CC(=O)Nc1ccc2c(c1)C(=O)c1ccc(NC(=O)C[N+](C)(C)CCCNC(=O)c3cccn3C)cc1C2=O.[Cl-].[Cl-]	> 100 µM	> 100 µM	1.2 °C	0.025 10^6/M	0.6 10^6/M	0.02 10^6/M	Active	Active	0.8 10^6/M	> 100 µM	Active	0.54 nanoseconds	4.7 °C	70	Active	0.6 10^6/M	Active	1.4 10^6/M	43 µM	0.5 10^6/M	AC50 (HeLa [31]): Active; Activity (HeLa [32]): Active; AC50 (HeLa [33]): Active; ΔTm (Quadruplex DNA [22]): 3.2 °C; Activity (HeLa [34]): Active; AC50 (HeLa [35]): Active; Activity (Quadruplex DNA [26]): Active
